From patent publication US10265333B2, “Lipid nanomaterial containing lysophosphatidylcholine or derivative thereof and method for preparing same” (priority 2013, dated 2019)

Key:
[1] = test system: hair-clipped dorsal back skins of mice; assay: Local irritation test in mice after single subcutaneous administration; format: in vivo; conditions: for Clinical signs: Normal appearance (% of mice) / Clinical signs: Normal appearance (mice/group) / Clinical signs: Skin ulcerative lesions (mice/group): male ICR mice, 14 days
Description: In order to evaluate the local irritation of the LPC-containing lipid nanoparticle formulation (LPC-F; 18:0 LPC concentration: 10 mg/ml) prepared in example 1, 20, 10, and 5 ml/kg (18:0 LPC 200, 100, and 50 mg/kg) were single subcutaneously administered to hair-clipped dorsal back skins of mice. Based on the “Testing Guidelines for Safety Evaluation of Drugs” [2009] in Notification No. 2009-116 issued by the Korea Food and Drug Administration, the changes in mortality, body weight, clinical signs, gross and histopathological findings around injection sites during 14 days were compared between the LPC-containing lipid nanoparticle formulations and equal concentrations of lysophosphatidylcholine saline suspension (LPC-API) 10 mg/ml treated group. In the present test, saline was used as negative control, and the highest dosage 200 mg/kg was set based on the maximum permissible dosage 20 ml/kg in rodents (Flecknell, 1996; KFDA Guidelines, Notification 2009-116, 2009; OECD Guidelines, #423, 2001). The dosages were set to 10 and 5 ml/kg in middle and lowest dosage groups, respectively.
Animal male ICR mice were 6-wk old upon receipt (body weight ranged in 30-32 g), and were 10-wk old after acclimatization for 28 days (body weight ranged in 36.4-49.0 g). The animals were distributed into the following groups for the test.
All data were expressed as mean±standard deviation (SD) of five mice. Multiple comparison tests for different dosage groups were conducted. Variance homogeneity was examined using the Levene test (Levene A, Clin Otalary, 1981; 6:145-51). […] Statistical analyses were conducted using SPSS (Release 14.0 K, SPSS Inc., USA; Ludbrook, Clin Exp Pharmacol Physiol, 1997; 24:294-6). A p-value <0.05 was considered statistically significant.

[2] = test system: heparinized rat (SD rat) bloods; assay: Erythrocyte aggregation in heparinized rat blood (semiquantitative score); format: cell-based; conditions: all six different concentrations (stock to 32-fold diluted)
Description: In order to evaluate the degree of hemolysis and erythrocyte aggregation induced by LPC-containing lipid nanoparticles (LPC-F; 18:0 LPC concentration: 10 mg/ml) prepared in example 1, 200 μl of saline, distilled water, six different concentration solutions (stock, 2, 4, 8, 16 and 32-fold diluted solutions) of LPC-F, or non-formulated lysophosphatidylcholine (LPC-API) 10 mg/ml concentrated saline solution were directly added into 1 ml of collected heparinized rat (SD rat) bloods, and then, incubated at 37° C. in shaking incubator at 100 rpm for 3 hrs. The prepared LPC-F was fold-diluted with saline to prepare six different concentrations of LPC-F. LPC-API 10 mg/ml concentrated solution was prepared through dispersion in saline, and then fold-diluted with saline to prepare six different concentrations of LPC-API Five independent experiments were repeatedly conducted. […] After the incubation in shaking incubator at 100 rpm, the formed erythrocyte aggregation was semi-quantitatively evaluated, and the OD values were calculated for the supernatant in each tube, which was prepared by centrifuging the incubated samples at 12,500 rpm for 10 minutes, and then reading the OD at 570 nm, respectively. Hemolysis was calculated by equation 1 below. […]
Erythrocyte aggregation was evaluated based on semiquantative scores as follows: […]

[3] = test system: heparinized rat (SD rat) bloods; assay: Hemolysis in heparinized rat blood (OD 570 nm of supernatant); format: cell-based
Description: In order to evaluate the degree of hemolysis and erythrocyte aggregation induced by LPC-containing lipid nanoparticles (LPC-F; 18:0 LPC concentration: 10 mg/ml) prepared in example 1, 200 μl of saline, distilled water, six different concentration solutions (stock, 2, 4, 8, 16 and 32-fold diluted solutions) of LPC-F, or non-formulated lysophosphatidylcholine (LPC-API) 10 mg/ml concentrated saline solution were directly added into 1 ml of collected heparinized rat (SD rat) bloods, and then, incubated at 37° C. in shaking incubator at 100 rpm for 3 hrs. The prepared LPC-F was fold-diluted with saline to prepare six different concentrations of LPC-F. LPC-API 10 mg/ml concentrated solution was prepared through dispersion in saline, and then fold-diluted with saline to prepare six different concentrations of LPC-API Five independent experiments were repeatedly conducted. If possible, blood taken from same rats was used in each independent experiment. After the incubation in shaking incubator at 100 rpm, the formed erythrocyte aggregation was semi-quantitatively evaluated, and the OD values were calculated for the supernatant in each tube, which was prepared by centrifuging the incubated samples at 12,500 rpm for 10 minutes, and then reading the OD at 570 nm, respectively. Hemolysis was calculated by equation 1 below. The hemolytic reaction was considered positive if the hemolytic percentage was greater than 5%. Hemolytic percentage (%)=(OD sample−OD negative/(OD positive−OD negative)×100 [Equation 1]
Where negative=saline, and positive=distilled water
OD values and semiquantative erythrocyte aggregation scores were expressed by mean±standard deviation of five independent experiments. Multiple comparison tests for different dose groups were conducted. Variance homogeneity was examined using the Levene test (Levene A, Clin Otalary, 1981; 6:145-51). […] Statistical analyses were conducted using SPSS (Release 14.0 K, SPSS Inc., USA; Ludbrook, Clin Exp Pharmacol Physiol, 1997; 24:294-6). A p-value p<0.05 was considered statistically significant.

[4] = single s.c. 5 ml/kg (LPC 50 mg/kg)
[5] = single s.c. 10 ml/kg (LPC 100 mg/kg)
[6] = single s.c. 20 ml/kg (LPC 200 mg/kg)

With lysophosphatidylcholine [LPC-API] the “Degree of ulcerative skin lesions around injection sites” value ([1]; 200, 100, 50 mg/kg treated groups, from 48 hrs after end of treatment) was “slight [1+] or moderate [2+]”, the “Histopathology: skin ulcerative lesions (% of mice)” value (from here on “Histopathology … (% of mice)”) ([1]; single s.c. 50 mg/kg) was 60% and the “Necropsy: skin ulcerative lesions around injection sites (% of mice)” value (shortened to “Necropsy … (% of mice)”) ([1]; single s.c. 50 mg/kg) was 60%. For the same substance, the “Histopathology … (% of mice)” value ([1]; single s.c. 100 mg/kg) was 60%, the “Necropsy … (% of mice)” value ([1]; single s.c. 100 mg/kg) was 60% and the “Histopathology … (% of mice)” value ([1]; single s.c. 200 mg/kg) was 100%. The “Necropsy … (% of mice)” value ([1]; single s.c. 200 mg/kg) was 100%, the “Histopathology, skins around injection sites: Normal (mice/group)” value (“Histopathology … Normal (mice/group)” below) [1, 4] was 2/5 and the “Histopathology: hUL degree 1+ Slight (mice/group)” value [1, 4] was 3/5. The “Histopathology: hUL degree 2+ Moderate (mice/group)” value [1, 4] was 0/5, the “Histopathology: hUL degree 3+ Severe (mice/group)” value [1, 4] was 0/5 and the “Histopathology: hUL, histopathological skin ulcerative lesions (mice/group)” value [1, 4] was 3/5. For the same substance, the “Necropsy, skins around injection sites: Normal (mice/group)” value (from here on “Necropsy … Normal (mice/group)”) [1, 4] was 2/5, the “Necropsy: gUL degree 1+ Slight (mice/group)” value [1, 4] was 3/5 and the “Necropsy: gUL degree 2+ Moderate (mice/group)” value [1, 4] was 0/5. The “Necropsy: gUL degree 3+ Severe (mice/group)” value [1, 4] was 0/5, the “Necropsy: gUL, gross skin ulcerative lesions (mice/group)” value [1, 4] was 3/5 and the “Clinical signs: Normal appearance (% of mice)” value (“Clinical signs … (% of mice)” for short) [1, 4] was “(40%)”. The “Clinical signs: Normal appearance (mice/group)” value [1, 4] was 2/5, the “Clinical signs: Skin ulcerative lesions (mice/group)” value [1, 4] was 3/5 and the “Histopathology … Normal (mice/group)” value [1, 5] was 2/5. For the same substance, the “Histopathology: hUL degree 1+ Slight (mice/group)” value [1, 5] was 3/5, the “Histopathology: hUL degree 2+ Moderate (mice/group)” value [1, 5] was 0/5 and the “Histopathology: hUL degree 3+ Severe (mice/group)” value [1, 5] was 0/5. For the same substance, the “Histopathology: hUL, histopathological skin ulcerative lesions (mice/group)” value [1, 5] was 3/5, the “Necropsy … Normal (mice/group)” value [1, 5] was 2/5 and the “Necropsy: gUL degree 1+ Slight (mice/group)” value [1, 5] was 3/5. For the same substance, the “Necropsy: gUL degree 2+ Moderate (mice/group)” value [1, 5] was 0/5, the “Necropsy: gUL degree 3+ Severe (mice/group)” value [1, 5] was 0/5 and the “Necropsy: gUL, gross skin ulcerative lesions (mice/group)” value [1, 5] was 3/5. For the same substance, the “Clinical signs … (% of mice)” value [1, 5] was “(40%)”, the “Clinical signs: Normal appearance (mice/group)” value [1, 5] was 2/5 and the “Clinical signs: Skin ulcerative lesions (mice/group)” value [1, 5] was 3/5. The “Histopathology … Normal (mice/group)” value [1, 6] was 0/5, the “Histopathology: hUL degree 1+ Slight (mice/group)” value [1, 6] was 3/5 and the “Histopathology: hUL degree 2+ Moderate (mice/group)” value [1, 6] was 1/5. The “Histopathology: hUL degree 3+ Severe (mice/group)” value [1, 6] was 1/5, the “Histopathology: hUL, histopathological skin ulcerative lesions (mice/group)” value [1, 6] was 5/5 and the “Necropsy … Normal (mice/group)” value [1, 6] was 0/5. The “Necropsy: gUL degree 1+ Slight (mice/group)” value [1, 6] was 3/5, the “Necropsy: gUL degree 2+ Moderate (mice/group)” value [1, 6] was 1/5 and the “Necropsy: gUL degree 3+ Severe (mice/group)” value [1, 6] was 1/5. The “Necropsy: gUL, gross skin ulcerative lesions (mice/group)” value [1, 6] was 5/5, the “Clinical signs … (% of mice)” value [1, 6] was “(0%)” and the “Clinical signs: Normal appearance (mice/group)” value [1, 6] was 0/5. For the same substance, the “Clinical signs: Skin ulcerative lesions (mice/group)” value [1, 6] was 5/5, the “Skin findings around injection sites (conclusion)” value ([1]; single subcutaneous treatment, compared with negative vehicle control) was “severe skin ulcerative lesions” and the “Erythrocyte aggregation scores as compared with non-treated or negative saline controls” value [2] was “significant increases”. The “Hemolytic percentage (%)” value ([3]; 2-fold diluted solution, 200 μl in 1 ml rat blood, 37° C., 3 hrs) was 148.65±15.01%, the “Hemolytic percentage (%)” value ([3]; 4-fold diluted solution, 200 μl in 1 ml rat blood, 37° C., 3 hrs) was 129.70±7.23% and the “Hemolytic percentage (%)” value ([3]; 8-fold diluted solution, 200 μl in 1 ml rat blood, 37° C., 3 hrs) was 117.67±5.97%. For the same substance, the “Hemolytic percentage (%)” value ([3]; 16-fold diluted solution, 200 μl in 1 ml rat blood, 37° C., 3 hrs) was 78.74±3.30%, the “Hemolytic percentage (%)” value ([3]; 32-fold diluted solution, 200 μl in 1 ml rat blood, 37° C., 3 hrs) was 26.86±6.40% and the “Hemolytic percentage (%)” value ([3]; stock (LPC 10 mg/ml), 200 μl in 1 ml rat blood, 37° C., 3 hrs) was 157.68±10.44%. For the same substance, the “Hemolytic percentage (%)” value ([3]; throughout all different concentrations including the lowest 32-fold diluted solutions) was “greater than 5%”.
